We go through nine compounds from US5739131A, “Benzene derivatives and pharmaceutical composition” (Kureha Chemical Industry Co., Ltd., priority 1994, dated 1998).

One data set has as its system mice. Nature of the data set: Acute toxicity, single oral dose. In kind it is in vivo. The method, then: Five-week-old ICR female mice (5 mice per group) were bred for acclimation for a week. Then, the compounds of the present invention were dissolved or dispersed in an aqueous solution of 0.5% methylcellulose, and orally administered to the mice in a single dosage (500 mg/kg).

For data set [1], the target named is T1, angiotensin II receptor subtype 1 (AT1) (Oryctolagus cuniculus, UniProt P34976).
T1 construct: receptor: from adrenal glands in rabbits; from tissue; host or cells: rabbit adrenal glands
T1 sequence (P34976 1-359): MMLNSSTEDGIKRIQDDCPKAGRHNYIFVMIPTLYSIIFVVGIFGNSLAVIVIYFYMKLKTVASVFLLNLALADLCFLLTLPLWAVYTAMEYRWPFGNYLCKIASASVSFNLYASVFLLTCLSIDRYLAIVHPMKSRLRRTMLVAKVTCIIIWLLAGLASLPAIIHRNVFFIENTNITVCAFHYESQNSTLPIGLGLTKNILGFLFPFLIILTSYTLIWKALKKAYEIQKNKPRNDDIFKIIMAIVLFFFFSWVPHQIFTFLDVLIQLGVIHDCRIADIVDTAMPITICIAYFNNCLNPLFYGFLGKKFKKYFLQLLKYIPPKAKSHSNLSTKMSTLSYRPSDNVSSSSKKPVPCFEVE
Nature of the data set: Binding assay, angiotensin II receptor subtype 1 (AT1). Conditions: 100 μM, AT1, rabbit adrenal glands. Details: species or system rabbit (adrenal glands). Here is the method: (§1) In this Example, the affinity to the angiotensin II receptor subtype 1 or subtype 2 was evaluated by a binding assay in accordance with the method described in Biochem. Pharmacol., 33, 4057-4062 (1984).
(§2) Specifically, the measurement of the total binding in the presence of each drug was performed as follows:
(§3) A mixture (final volume=0.25 ml) of a drug in a given concentration (the drug was dissolved in DMSO, and diluted to a double volume with a buffer attached to a drug discovery system to prepare sample for the assay; 0.025 ml), a tracer (0.025 ml), and receptors (0.2 ml) was incubated [in the case of the angiotensin II receptor subtype 1 (AT1), at room temperature for 3 hours, and in the case of the subtype 2 (AT2), at 37° C. for 1 hour]. Then, the reaction mixture was filtered with suction (GF/C filter was used in AT1, and GF/B filter was used in AT2). The filter papers after filtration with suction (the tracer bound to the receptors) were counted by a γ-well counter (ARC-500, Aloka). The non-specific bindings were measured by repeating the above method, except that a large excess amount of a displacer was added. The specific binding of the drug in the given concentration was calculated by subtracting the non-specific binding from the total binding, respectively.
(§4) In AT1 and AT2, the percentages to inhibit the bindings of radioactive ligands (tracer) to receptors by the drugs to be tested (IC50 value of concentration to show 50% inhibition, or binding inhibition % in 100 μM) were measured, using the drugs to be tested and control drugs in the given concentration.

Data set [2] addresses T2, angiotensin II receptor subtype 2 (AT2) (Bos taurus, UniProt G5E6F7).
T2 construct: receptor: from cerebellar cortex in bovine; from tissue; host or cells: bovine cerebellar cortex
T2 sequence (G5E6F7 1-362): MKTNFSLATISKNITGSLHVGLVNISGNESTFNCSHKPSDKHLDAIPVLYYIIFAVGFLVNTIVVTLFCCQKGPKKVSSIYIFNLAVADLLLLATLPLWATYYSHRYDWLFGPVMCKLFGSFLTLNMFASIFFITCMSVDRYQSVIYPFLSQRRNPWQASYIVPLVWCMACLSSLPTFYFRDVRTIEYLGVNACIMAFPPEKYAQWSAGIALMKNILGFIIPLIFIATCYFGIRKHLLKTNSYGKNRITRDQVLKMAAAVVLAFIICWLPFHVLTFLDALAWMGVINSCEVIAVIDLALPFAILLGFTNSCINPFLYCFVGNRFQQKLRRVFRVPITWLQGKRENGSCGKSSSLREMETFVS
Kind of data set: Binding assay, angiotensin II receptor subtype 2 (AT2). Details: species or system bovine (cerebellar cortex). Conditions: 100 μM, AT2, bovine cerebellar cortex, 37° C. 1 hour; read-out: Binding inhibition % in 100 μm, AT2. Here is the method:
as §1, §2, §3, §4
receptor: from cerebellar cortex in bovine
tracer: ^125 ITyr^4angiotensin II
control drug: angiotensin II (human)
(displacer): angiotensin II (human)

Data set [3] relates to kidney disease model rats. Kind of data set: Action to depress blood pressure (tail cuff method). In kind it is in vivo, Sprague-Dawley female rats. The settings on record: systolic, average, 20 mg/kg per os, two days from administration; control (water) 203. Here is the method: The compounds of the present invention and the reference substance were forcedly administered per os to kidney disease model rats, and the action to depress blood pressure was observed. The kidney disease model rats were prepared by ligature of branches of renal artery in accordance with the conventional method, that is, the left hilum renalis of Sprague-Dawley female rats was exposed under anesthesia, and one of four secondary branches of renal artery was left unligated, while the remaining three branches were ligated, respectively. After a week, the hilum renalis (artery, vein, and ureter) of the right kidney were further ligated to thereby prepare the rats whose renal function was lowered to approximately 1/8 of the normal function. Each group consisted of eight rats. The drugs to be tested (20 mg/kg) were administered to each administering group, and only water was administered to control group. After two days from the administration, the systolic blood pressure was measured by the tail cuff method using a blood pressure measuring apparatus (UR5000; Ueda).

The test system of data set [4] is kidney disease model rats. Kind of data set: Renal function indicatory value (action to kidney diseases). Conditions: 20 mg/kg/day per os, two weeks; for Creatinine clearance: 24 hours urine, control 0.20; for Creatinine / Urea nitrogen: serum; for Creatinine: control 2.0; for Urea nitrogen: control 100. In kind it is in vivo, Sprague-Dawley female rats. The method, then:
The kidney disease model rats were prepared as in Example 115. Twenty-five groups (8 rats per group) were sleeked in a manner so that there were no major differences between each group in the serum creatinine value and the urea nitrogen value indicating renal function. The rats in each group were allowed to freely take up feed and water. […] To the rats in the control group, only water was forcedly administered per os every day. After two weeks, 0.2 ml of blood was collected from the carotid artery of the rat under anesthesia, and centrifuged to obtain serum. Using 25 μl of the serum, serum creatinine (Scr) was measured by a creatinine analytical instrument (Beckman). Using 10 μl of the serum, urea nitrogen (BUN) was measured by a BUN analytical instrument (Beckman). Creatinine clearance was evaluated as follows:
After serum creatinine measurement, rats were placed in urinary metabolic cages for 24 hours to collect urine. Urinary creatine concentration (Ucr) was measured by a creatinine analytical instrument, and total volume of urination (Uvol) was also measured. Creatinine clearance (CCr) was calculated by the following formula: [formula]

Data set [5] deals with kidney disease model rats. Nature of the data set: Action to survival time of kidney diseased animals. In kind it is in vivo, Sprague-Dawley female rats. Conditions: 20 mg/kg/day per os, observation eight weeks (upper limit); control 5.0. The method, then: The kidney disease model rats were prepared as in Example 115. Twenty-five groups (8 rats per group) were prepared in a manner so that there was no major difference between the groups in the serum creatinine value and the urea nitrogen value indicating renal function. The rats in each group were allowed to freely take up feed and water. […] To the rats in the control group, only water was forcedly administered per os every day. If kidney diseases are aggravated, the rat will die of uremia. Thus, the survival time was observed as comprehensive indication of the improvement effect on the kidney diseases. The observation period was eight weeks. Thus if all rats survived, the average survival time is eight weeks and it is an upper limit.

Broadly, the inhibition is the change of the read-out against control, counted positive when it falls.

As for `CCCCC(=O)Nc1ccc(C(=O)N2CCOCC2)cc1NCc1ccc(C(=O)O)cc1` [Compound No. 1, 3-[(4-carboxyphenyl)methylamino]4-valeramidobenzoic acid morpholide], in the data set on mice (mice, single oral 500 mg/kg, observed for 6 days, 5 per group), the “Number of deaths/number of survivals” value is given as 0/5. For the same compound, testing at 100 µM in data set [1] gave an inhibition of 33%. Besides, the inhibition at 100 µM in data set [2] came to 0%. Also, the Blood pressure in data set [3] was found to be 196 mmHg. Besides, in data set [4], the Creatinine clearance was found to be 0.34 mL/min, the Creatinine worked out at 1.6 mg/dL and the Urea nitrogen was found to be 75 mg/dL. In addition, the Average survival time in data set [5] was 7.1 weeks.
For `CCCCCN(C)c1ccc(C(=O)N2CCOCC2)cc1NCc1ccc(C(=O)O)cc1` [Compound No. 41, 4-(N-n-amyl-N-methyl)amino-3-[(4-carboxyphenyl)methyl]aminobenzoic acid morpholide], in the data set with mice (mouse, in vivo, po, 500 mg/kg), the “Number of deaths/number of survivals” value was 0/5. Moreover, the inhibition at 100 µM in data set [1] worked out at 26%. In addition, the inhibition at 100 µM in data set [2] came out at 0%. Besides, the Blood pressure in data set [3] was found to be 195 mmHg. In data set [4], the Creatinine clearance was found to be 0.36 mL/min, the Creatinine is 1.6 mg/dL and the Urea nitrogen was found to be 72 mg/dL. For the same compound, the Average survival time in data set [5] turned out to be 7.6 weeks.
Turning to `CCCCCCc1ccc(C(=O)N2CCOCC2)cc1NCc1ccc(C(=O)O)cc1` [Compound No. 75, 3-[(4-carboxyphenyl)methyl]amino-4-hexylbenzoic acid morpholide], the inhibition at 100 µM is 15% in data set [1] and 0% in data set [2].
`CCCCC(=O)N(Cc1ccc(C(=O)O)cc1)c1cccc(C(=O)N2CCOCC2)c1` [Compound No. 90, 3-[N-(4-carboxyphenyl)methyl]valeramidobenzoic acid morpholide]: the “Number of deaths/number of survivals” value in the data set with mice (mouse, in vivo, po, 500 mg/kg) was 0/5. This compound also gave an inhibition at 100 µM in data set [1] of 30%. Besides, the inhibition at 100 µM in data set [2] came out at 0%. Further, the Blood pressure in data set [3] worked out at 194 mmHg. In data set [4], this compound registered a Creatinine clearance of 0.38 mL/min, a Creatinine of 1.5 mg/dL and a Urea nitrogen of 70 mg/dL. Also, the Average survival time in data set [5] is on record as 7.6 weeks.
For the compound `CCCCCN(Cc1ccc(C(=O)O)cc1)c1cccc(C(=O)N2CCOCC2)c1` [Compound No. 158, 3-[N-(4-carboxyphenyl)methyl]-n-amylaminobenzoic acid morpholide], in the data set on mice (mouse, in vivo, po, 500 mg/kg), the “Number of deaths/number of survivals” value is reported as 0/5. In addition, in data set [1], testing at 100 µM gave an inhibition of 18%. In addition, the inhibition at 100 µM in data set [2] is 0%. For the same compound, the Blood pressure in data set [3] turned out to be 190 mmHg. In data set [4], the Creatinine clearance was 0.37 mL/min, the Creatinine was 1.7 mg/dL and the Urea nitrogen came out at 74 mg/dL. The compound further registered an Average survival time in data set [5] of 7.2 weeks.
Consider `CCCCC(=O)N(Cc1ccc(C(=O)O)cc1)c1cc(C(=O)N2CCOCC2)ccc1N(C)C` [Compound No. 184, 3-N-[[(4-carboxyphenyl)methyl]valeramido]-4-dimethylaminobenzoic acid morpholide], for which the “Number of deaths/number of survivals” value in the data set with mice (mouse, in vivo, po, 500 mg/kg) was 0/5. Further, in data set [1], 100 µM produced 0% inhibition. For the same compound, in data set [2], the inhibition at 100 µM came to 0%. Moreover, the Blood pressure in data set [3] is 195 mmHg. Also, in data set [4], the Creatinine clearance worked out at 0.38 mL/min, the Creatinine amounted to 1.5 mg/dL and the Urea nitrogen was 70 mg/dL. The Average survival time in data set [5] came out at 7.6 weeks.
On to `CCCNC(=O)N(Cc1ccc(C(=O)O)cc1)c1cc(C(=O)N2CCOCC2)ccc1N(C)C` [Compound No. 225], for which, in the data set on mice (mouse, in vivo, po, 500 mg/kg), the “Number of deaths/number of survivals” value was 0/5. The inhibition at 100 µM in data set [1] was 4%. The inhibition at 100 µM in data set [2] was determined as 0%. Also, the Blood pressure in data set [3] is reported as 195 mmHg. For the same compound, in data set [4], the Creatinine clearance came out at 0.25 mL/min, the Creatinine was 1.8 mg/dL and the Urea nitrogen is 73 mg/dL. The same compound had an Average survival time in data set [5] of 7.0 weeks.
In the case of `CCCCCN(Cc1ccc(C(=O)O)cc1)c1cc(C(=O)N2CCOCC2)ccc1N(C)C` [Compound No. 252, 4-dimethylamino-3-[N-(4-carboxyphenyl)methyl]-n-amylaminobenzoic acid morpholide], the “Number of deaths/number of survivals” value with mice (mouse, in vivo, po, 500 mg/kg) is recorded as 0/5. The compound further displayed an inhibition at 100 µM in data set [1] of 34%. Further, the inhibition at 100 µM in data set [2] is 0%. The compound further displayed a Blood pressure in data set [3] of 200 mmHg. In data set [4], the Creatinine clearance is 0.28 mL/min, the Creatinine was 1.7 mg/dL and the Urea nitrogen came to 73 mg/dL. In addition, the Average survival time in data set [5] stood at 7.0 weeks.
As to `CCCCC(=O)N(Cc1ccc(C(=O)O)cc1)c1cc(S(=O)(=O)N2CCOCC2)ccc1N(C)C` [Compound No. 597, 4-[[3-N-[(4-carboxyphenyl)methyl]valeramido-4-dimethylaminobenzene]sulfonyl]morpholine], the inhibition at 100 µM in data set [1] and in data set [2] was 0% throughout.
